Reference: article PMC8719441, “Tonoplast-Localized Theanine Transporter CsCAT2 May Mediate Theanine Storage in the Root of Tea Plants (Camellia sinensis L.)” (Frontiers in Plant Science, 2021)

B1: CsCAT2 (Camellia sinensis) (protein)
chain: MGFRCDSQNDGGACPWTCGFKGLIRRKQVDSIHAKSSGSGHHQLAKELSVFHLIAIGVGSTIGAGVYILVGTVAREHSGPALTFSFLIAGIAAALSAFCYAELASRCPSAGSAYHYSYICVGEGVAWLIGWALILEYTIGGSAVARGISPNLALLFGGADSLPFFLARQHLPGLDIVVDPCAALLVIVVTGLLCVGIKESTLVQSIVTTANVCAMLFVIIAGGYLGFKSGWVGYELPVGYFPFGVDGMLAGAATVFFAYIGFDSVASTAEEVKNPQRDLPLGIAAALSICCMLYMLVSVVIVGLVPYYAMDPDTPISSAFASHGMQWAAYIITAGATTALCSTLMGSMLPQPRILMAMSRDGLLPSIFSDVNKRTQVPIKSTVITGVVAAILAFIMDVEQLAGMVSVGTLLAFTMVAISVLILRYVPPDEVPIPSSLQESIDSVSLRYSTSNDNIEEEKPKDHIGSSTQSTRLLLGKVDRPIAYPLIPKQAATILNDNRRKIAGWTIMFTCVGVLLLTSAASSVGLLPSYFRFGVCGIGVVLILSGLVVLTCIDQDDARHSFGHTGGFICPFVPLLPIACVLINVYLLINLGSATWTRVSIWLLIGVLVYAFYGRTHSSLKDAVYVPATHVEEIYRSSENSLP
notes: no tag mentioned

Substrate: CCNC(=O)CC[C@H](N)C(=O)O
Assay: cells, lysate or membranes
Assay type: cell-based, Camellia sinensis
Conditions: 0.09375-8 mM theanine, 0-20 min, after 2 h nitrogen starvation; H+-coupled

| Molecule | Km [µM] |
| --- | --- |
| B1 | 450 |

Target: T1, CsCAT2 (Camellia sinensis, UniProt A0A2R3U877)
T1 construct: gene CAT2; no tag mentioned
Assay: competition with theanine uptake in yeast […]Δ[…]α-CsCAT2, HPLC-UV; growth on sole nitrogen source
Assay type: cell-based
Conditions: 200 μM theanine, 10 min

| Molecule | % theanine uptake at 2 mM competitor |
| --- | --- |
| CC(C)[C@H](N)C(=O)O [valine] | CsCAT2's capacity to transport theanine was significantly suppressed by these amino acids |
| N[C@@H](CC(=O)O)C(=O)O [aspartic acid] | CsCAT2's capacity to transport theanine was significantly suppressed by these amino acids |
| N[C@@H](CCC(=O)O)C(=O)O [glutamate] | CsCAT2's capacity to transport theanine was significantly suppressed by these amino acids |
| C[C@H](N)C(=O)O [alanine] | CsCAT2's capacity to transport theanine was significantly suppressed by these amino acids |
| NC(=O)CC[C@H](N)C(=O)O [glutamine] | CsCAT2's capacity to transport theanine was significantly suppressed by these amino acids |
